Marks after values point to notes of the source that are not given here.

These results are taken from patent publication US10292393B2, “Mitigation of alternate bearing” (The Regents of the University of California, priority 2009, dated 2019).

For data set [1], the system named is ‘Fina Sodea’ Clementine mandarin trees.
Data set [2] relates to on-crop ‘Nules’ Clementine mandarin trees. Kind of data set: Trunk injections, spring bloom of on-crop mandarin trees. Particulars: trunk injection 1 g per tree, counted at spring bloom. Format: in vivo. The source says:
This example describes the mitigation of alternate bearing in ‘Nules’ Clementine mandarin trees achieved via trunk injection of adenosine in a composition containing the auxin transport inhibitor TIBA. On-crop ‘Nules’ Clementine mandarin trees received trunk injections of the following compounds listed in Table 1-1: TIBA (2,3,5-triiodobenzoic acid) (Sigma Chemical); 6-BA (6-benzyladenine) (Sigma Chemical); GA3 (PROGIBB® 40%, Valent BioSciences Corp.); and Ado (9-beta-D-adenosine) (Sigma Chemical, Catalog No. A9251) alone or in combination with TIBA. Each material was supplied at the rate of 1 g per tree dissolved in 50-60 ml distilled water using two plastic syringes per tree at each application time. Application times were timed (1) to stimulate summer shoot growth by overcoming correlative inhibition (July) and (2) to overcome inhibition of spring bud break (January). Thus, trees were treated in July alone or in July and January. There was also a treatment in which the apical three nodes of each shoot were removed to release the lateral buds from the dominance of the apical bud to promote summer vegetative shoot growth. The treatments included untreated on-crop control trees and untreated off-crop control trees. The experimental design was a randomized complete block with 5 individual tree replications per treatment with 13 treatments. For each tree, branches (12 inches long), 3 with fruit and 1 branch without fruit in each of the four tree quadrants, were tagged (off-crop control trees were tagged 3 without fruit and 1 with fruit). At the end of September and December, the number and length of new vegetative shoots were quantified to determine the capacity of treatments to overcome inhibition of buds that produce the summer and fall flush shoots, respectively.

Data set [3] deals with on-crop ‘Hass’ avocado trees. Kind of data set: Trunk injections, spring bloom and yield of on-crop avocado trees. Format: in vivo, ‘Hass’ avocado (Persea americana cv. Hass). Conditions: trunk injection 1 g/tree, Jan; for Floral (with fruit): branches with fruit; for Floral (w/o fruit): branches without fruit; for Fruit yield: putative off-crop following the on-crop; for Determinate floral shoots / Floral shoots / Indeterminate floral shoots: spring bloom. As for the experimental part: This example describes the mitigation of alternate bearing in ‘Hass’ avocado trees achieved via trunk injection of adenosine and plant growth regulators. The following treatments were injected (1 g/tree) in mid-January into the trunk of on-crop ‘Hass’ avocado trees in a commercial orchard in Irvine, Calif.: (1) 9-beta-D-adenosine (Sigma Chemical, Catalog No. A9251); (2) 6-BA (Sigma Chemical); (3) GA3 (PROGIBB® 40%, Valent BioSciences Corp.); (4) TIBA (Sigma Chemical); and (5) TIBA plus adenosine. Each material was supplied at the rate of 1 g per tree dissolved in 50-60 ml distilled water using two plastic syringes per tree. There were five individual tree replicates per treatment, including (6) untreated on-crop control trees. For each tree, branches (12 inches long), 1 with fruit and 1 branch without fruit in each of the four tree quadrants, were tagged.

The next data set has as its system mandarins. Particulars: cited from earlier work.
Setting [4] is: 3-year cumulative, 25 mg/L in 250 gallons water per acre, once at maximum peel thickness.
Setting [5] is: 3-year cumulative, jumbo (63.51-69.85 mm).
Setting [6] is: 3-year cumulative, large (57.16-63.50 mm).
The mark [7] stands for this setting: 3-year cumulative, mammoth (69.86-76.20 mm).
The mark [8] stands for this setting: 3-year cumulative, medium (50.81-57.15 mm).
[9] abbreviates: 3-year cumulative, small (44.45-50.80 mm).

On to `Nc1ncnc2c1ncn2[C@@H]1O[C@H](CO)[C@@H](O)[C@H]1O` [Ado, 9-beta-D-adenosine], for which, in data set [1] (setting [4]), the “Quantity of fruit, Total” value is on record as 1529.3^y fruit no./tree and the “Yield of fruit, Total” value is reported as 126.30^y kg/tree. Moreover, in data set [1] (3-year cumulative, colossal (76.21-82.55 mm)), the “Quantity of fruit, Colossal” value is given as 5.64 fruit no./tree. In addition, in data set [1] (setting [5]), the “Quantity of fruit, Jumbo” value is 128.25 a fruit no./tree and the “Yield of fruit, Jumbo” value came to 15.42 a kg/tree. In data set [1] (setting [6]), the “Quantity of fruit, Large” value amounted to 360.93 a fruit no./tree and the “Yield of fruit, Large” value was 34.67 a kg/tree. In addition, in data set [1] (setting [7]), the “Quantity of fruit, Mammoth” value is listed as 22.89 fruit no./tree and the “Yield of fruit, Mammoth” value is 3.52 kg/tree. Besides, in data set [1] (setting [8]), the “Quantity of fruit, Medium” value came to 497.05 fruit no./tree and the “Yield of fruit, Medium” value is given as 37.00 kg/tree. For the same molecule, in data set [1] (3-year cumulative, packing carton size colossal (76.21-82.55 mm)), the “Yield of fruit, Colossal” value came to 1.04 kg/tree. Moreover, in data set [1] (setting [9]), the “Quantity of fruit, Small” value amounted to 417.12 fruit no./tree and the “Yield of fruit, Small” value is 23.58 kg/tree. Besides, the “Quantity of fruit, Ma + J + L” value in data set [1] (3-year cumulative, sum of mammoth, jumbo and large) turned out to be 512.07 a fruit no./tree. The “Yield of fruit, Ma + J + L” value in data set [1] (3-year cumulative, sum of mammoth, jumbo and large (57.16-76.20 mm)) is reported as 53.60 kg/tree. Also, the “Effects on mandarin fruit quality” value in data set [1] (in vivo) is on record as “did not have negative effects”. The “Net increase in total yield” value in data set [1] (versus control, numerical (non-significant)) is given as 6,799 lbs fruit/200 trees/acre. For the same molecule, the “Net increase in 3-year cumulative yield of commercially valuable large fruit (57.16-76.20 mm in diameter)” value in data set [1] (versus control, statistically significant) is 4,735 lbs/200 trees/acre. Further, in data set [2] (Jul + Jan), the “Floral on Spring shoots” value was 5 bc No. of shoots per 100 nodes, the “Floral on Summer-Fall shoots” value is 16 No. of shoots per 100 nodes, the Floral shoots was 12 No. of shoots per 100 nodes and the “Leafless Floral shoots” value is 0 No. of shoots per 100 nodes. Further, the “Leafy Floral shoots” value in data set [2] (Jul + Jan) is listed as 12 No. of shoots per 100 nodes. For the same molecule, in data set [2] (July), the “Floral on Spring shoots” value was 2 bc No. of shoots per 100 nodes, the “Floral on Summer-Fall shoots” value is reported as 14 No. of shoots per 100 nodes, the Floral shoots is listed as 10 No. of shoots per 100 nodes and the “Leafless Floral shoots” value is on record as 2 No. of shoots per 100 nodes. The “Leafy Floral shoots” value in data set [2] (July) is listed as 8 No. of shoots per 100 nodes. In addition, in data set [3], the “Floral (with fruit)” value is 8 No. of shoots per 100 nodes, the “Floral (w/o fruit)” value is 10 No. of shoots per 100 nodes, the Fruit yield is 220 No. per tree and the Determinate floral shoots is 3 ab No. of shoots per 100 nodes. Further, in data set [3], the Floral shoots is 10 ab No. of shoots per 100 nodes and the Indeterminate floral shoots is on record as 7 No. of shoots per 100 nodes.

Take `C=C1C[C@]23C[C@@]1(O)CC[C@H]2[C@@]12C=C[C@H](O)[C@@](C)(C(=O)O1)[C@H]2[C@@H]3C(=O)O` [GA3, gibberellic acid]: in data set [2] (Jul + Jan), the “Floral on Spring shoots” value was 0 c No. of shoots per 100 nodes, the “Floral on Summer-Fall shoots” value is 2 No. of shoots per 100 nodes, the Floral shoots is recorded as 1 No. of shoots per 100 nodes and the “Leafless Floral shoots” value is reported as 0 No. of shoots per 100 nodes. In addition, in data set [2] (Jul + Jan), the “Leafy Floral shoots” value was 1 No. of shoots per 100 nodes. For the same molecule, in data set [2] (July), the “Floral on Spring shoots” value is 0 c No. of shoots per 100 nodes, the “Floral on Summer-Fall shoots” value is given as 4 No. of shoots per 100 nodes, the Floral shoots is given as 3 No. of shoots per 100 nodes and the “Leafless Floral shoots” value is 0 No. of shoots per 100 nodes. Also, the “Leafy Floral shoots” value in data set [2] (July) is given as 3 No. of shoots per 100 nodes. For the same molecule, in data set [3], the “Floral (with fruit)” value is on record as 6 No. of shoots per 100 nodes, the “Floral (w/o fruit)” value is 8 No. of shoots per 100 nodes, the Fruit yield was determined as 194 No. per tree and the Determinate floral shoots is listed as 2 b No. of shoots per 100 nodes. Moreover, in data set [3], the Floral shoots is 7 b No. of shoots per 100 nodes and the Indeterminate floral shoots is 6 No. of shoots per 100 nodes. Further, the “Effect on total number of fruit per tree” value in the data set with mandarins (light crop year (approximately 550 fruit per tree), four applications from 60% bloom, 15 or 25 mg GA3/L) is on record as “successfully increase the total number of fruit per tree”. The “Effect on total yield and yield of large size fruit” value in the data set with mandarins (on-crop years (approximately 1200 fruit per tree)) is “either reduced both total yield and yield of commercially valuable large size fruit (packing carton sizes large, jumbo and mammoth) or had no effect”.

Turning to `O=C(O)c1cc(I)cc(I)c1I` [TIBA, 2,3,5-triiodobenzoic acid], in data set [2] (Jul + Jan), the “Floral on Spring shoots” value was 5 bc No. of shoots per 100 nodes, the “Floral on Summer-Fall shoots” value was 26 No. of shoots per 100 nodes, the Floral shoots is listed as 18 No. of shoots per 100 nodes and the “Leafless Floral shoots” value is 3 No. of shoots per 100 nodes. Besides, in data set [2] (Jul + Jan), the “Leafy Floral shoots” value is reported as 15 No. of shoots per 100 nodes. In addition, in data set [2] (July), the “Floral on Spring shoots” value is 3 bc No. of shoots per 100 nodes, the “Floral on Summer-Fall shoots” value is listed as 27 No. of shoots per 100 nodes, the Floral shoots was 19 No. of shoots per 100 nodes and the “Leafless Floral shoots” value is listed as 5 No. of shoots per 100 nodes. The “Leafy Floral shoots” value in data set [2] (July) is given as 13 No. of shoots per 100 nodes. Moreover, in data set [3], the “Floral (with fruit)” value is 11 No. of shoots per 100 nodes, the “Floral (w/o fruit)” value was 8 No. of shoots per 100 nodes, the Fruit yield is 478 No. per tree and the Determinate floral shoots is on record as 1 b No. of shoots per 100 nodes. Also, in data set [3], the Floral shoots is reported as 9 b No. of shoots per 100 nodes and the Indeterminate floral shoots was 8 No. of shoots per 100 nodes.
